Molecular target: XPD (S. acidocaldarius) (Sulfolobus acidocaldarius, UniProt Q4JC68)
Settings: ssDNA-stimulated; temperature and pH not stated here

XPD (S. acidocaldarius), sequence (Q4JC68 whole entry): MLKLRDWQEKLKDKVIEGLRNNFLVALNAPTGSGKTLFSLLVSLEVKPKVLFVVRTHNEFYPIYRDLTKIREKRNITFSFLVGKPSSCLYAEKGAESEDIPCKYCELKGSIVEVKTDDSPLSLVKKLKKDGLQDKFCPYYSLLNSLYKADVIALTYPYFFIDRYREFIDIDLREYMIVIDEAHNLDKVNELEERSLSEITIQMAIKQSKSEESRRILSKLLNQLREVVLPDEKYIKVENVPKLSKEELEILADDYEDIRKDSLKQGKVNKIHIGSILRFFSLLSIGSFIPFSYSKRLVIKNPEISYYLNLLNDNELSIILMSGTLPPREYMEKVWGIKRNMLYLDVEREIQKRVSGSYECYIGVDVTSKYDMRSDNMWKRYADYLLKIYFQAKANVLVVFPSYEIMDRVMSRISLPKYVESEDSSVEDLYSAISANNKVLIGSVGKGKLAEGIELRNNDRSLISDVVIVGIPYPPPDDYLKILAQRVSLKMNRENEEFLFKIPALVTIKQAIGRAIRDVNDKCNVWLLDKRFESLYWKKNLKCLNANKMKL

## Nc1ncnc2c1ncn2[C@@H]1O[C@H](COP(=O)(O)OP(=O)(O)OP(=O)(O)O)[C@@H](O)[C@H]1O [ATP]
  ATPase rate: Plot of the ssDNA-stimulated ATPase activities of the indicated wild-type and mutant proteins

Source: paper PMC3326533 (Cell, 2008)
